Patent publication US6410585B1, “Inhibitors of protein tyrosine phosphatase” (priority 1997, dated 2002)
“And” between values parts separate entries of the source, which are not always exact repeats. Identical values can stand only once.

Tests used:
rat PTP1 = biological target: T1, rat PTP1 (Rattus norvegicus, UniProt P20417); test: PTP1 assay, pNPP hydrolysis (rate of change in A405); assay type: biochemical; details: pNPP hydrolysis, Table 2, read-out: PTP1 Inhib PTP1N. % Inhib
T1 construct: a C-terminal truncation of rat PTP1 (amino acid residues 1-322); GST (N, cleaved yes); made in house; host or cells: E. coli strain TG-1 (pGEX-2T)
T1 sequence (P20417 1-322): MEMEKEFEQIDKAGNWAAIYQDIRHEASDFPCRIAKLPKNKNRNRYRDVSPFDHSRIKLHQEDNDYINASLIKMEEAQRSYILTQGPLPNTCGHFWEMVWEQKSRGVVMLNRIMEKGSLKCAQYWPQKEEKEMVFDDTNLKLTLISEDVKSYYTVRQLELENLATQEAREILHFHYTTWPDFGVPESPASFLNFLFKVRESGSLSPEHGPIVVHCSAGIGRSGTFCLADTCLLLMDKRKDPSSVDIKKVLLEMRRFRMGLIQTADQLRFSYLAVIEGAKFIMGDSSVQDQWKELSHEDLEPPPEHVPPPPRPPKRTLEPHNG
How it was run: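 Thrombin-cleaved rat PTP1 residues 1-322 (35 ng/ml) with 1 mM pNPP in 50 mM Hepes pH 7.2, NaCl, EDTA, DTT, BSA at room temperature. A405 rate followed 60 min. Compounds added as 10 mM solutions; percent inhibition relative to plate DMSO controls, 1 mM orthovanadate as full-inhibition control.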

human PTP1B = biological target: T2, human PTP1B (Homo sapiens, UniProt P18031); test: PTP1B assay, pNPP hydrolysis, assayed exactly as for PTP1; assay type: biochemical; details: for inhibition at 1 µM / inhibition at 10 µM / inhibition at 100 µM: Table 2, read-out: PTP1B Inhib PTP1B. % Inhib; for PTP1B Inhib PTP1B. % Inhib: Table 2
T2 construct: human PTP1B (amino acid residues 1-321); made in house; host or cells: E. coli BL21(DE3)
T2 sequence (P18031 1-321): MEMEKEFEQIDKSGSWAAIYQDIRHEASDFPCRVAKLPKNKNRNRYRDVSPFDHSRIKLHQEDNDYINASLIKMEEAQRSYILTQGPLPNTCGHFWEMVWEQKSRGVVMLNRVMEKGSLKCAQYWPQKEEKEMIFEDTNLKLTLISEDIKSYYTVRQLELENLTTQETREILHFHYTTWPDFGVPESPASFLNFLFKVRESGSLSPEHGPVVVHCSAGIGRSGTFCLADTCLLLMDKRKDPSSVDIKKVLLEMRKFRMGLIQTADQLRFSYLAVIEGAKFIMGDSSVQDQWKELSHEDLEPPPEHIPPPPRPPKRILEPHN
Excerpt: The equivalent construct of human PTP1B (amino acid residues 1-321) (cloned from a human placental library), without the GST tag and thrombin cleavage site, was inserted into a pMB replicon and transformed into E. coli BL21(DE3), a strain containing a chromosomal copy of the gene for T7 RNA polymerase under control of a lacUV5 promoter. Expression of PTP1B was induced with isopropyl thiogalactose and the soluble protein was purified by ion exchange, hydrophobic interaction and gel exclusion chromatography for use in the assay to identify PTP inhibitors.
PTP1 activity is measured using either p-nitrophenol phosphate (pNPP) or a triphosphopeptide (that matches residues 1142 through 1153 of the β-subunit and the insulin receptor) as substrate in a 96-well microtiter plate format. An assay pH of 7.2 is used for standard assays (measured 405=9800 at pH 7.2).
Human PTP1B, which is highly homologous to rat PTP1, was assayed exactly as described above for PTP1.
Standard assays are conducted at room temperature in a total volume of 0.2 ml that contains Hepes buffer (50 mM, pH 7.2), NaCl (50 mM), EDTA (1 mM), DTT (1 mM), bovine serum albumin (1 mg/ml), pNPP (1 mM) and PTP1 (35 ng/ml). Compounds (2 μl of 10 mM solutions) are pipetted into wells of microtiter plates followed by 198 μl of premixed reaction mix (with PTP1 and pNPP added immediately before use). The rate of change in A405 is recorded for 60 min. Two wells on each plate contain DMSO controls and two wells contain sodium orthovanadate (1 mM) which inhibits PTP1-catalyzed hydrolysis of pNPP completely. Data are expressed as percent inhibition relative to the average of the DMSO controls measured on the same microtiter plate.

inhibition at 1 µM (rat PTP1; Conc 1 uM) [%]	inhibition at 10 µM (rat PTP1; Conc 10 uM) [%]	inhibition at 100 µM (rat PTP1; Conc 100 uM) [%]	inhibition at 1 µM (human PTP1B; Conc 1 uM) [%]	inhibition at 10 µM (human PTP1B; Conc 10 uM) [%]	inhibition at 100 µM (human PTP1B; Conc 100 uM) [%]	PTP1B Inhib PTP1B. % Inhib (human PTP1B; Conc 1 uM) [%]	PTP1B Inhib PTP1B. % Inhib (human PTP1B; Conc 10 uM)	PTP1B Inhib PTP1B. % Inhib (human PTP1B; Conc 100 uM) [%]	Compound
37	84	97	45	87	99				CCCCCNC(=O)C(Cc1ccc(OC(COO)COO)cc1)NC(=O)C(Cc1ccccc1)NC(=O)CCC(=O)O (stereo not shown)
			57	91	98				CCCCCNC(=O)[C@H](Cc1ccc(OCC(=O)O)c(C(=O)O)c1)NC(=O)C(Cc1ccccc1)NC(=O)Cn1nnnc1S (stereo partly shown)
			39	85	98				CCCCCNC(=O)C(Cc1ccc(OCCOO)c(COO)c1)NC(=O)C(Cc1ccccc1)NC(=O)Cc1ccc(C)cc1 (stereo not shown)
			1	5	25				CCCCCNC(=O)C(Cc1ccc(OCC(=O)O)c(OCC(=O)O)c1)NC(=O)C(Cc1ccccc1)NC(=O)OC(C)(C)C (stereo not shown)
			64	93	98	66	92%		CCCCCNC(=O)C(Cc1ccc(OCCOO)c(COO)c1)NC(=O)C(Cc1ccccc1)NC(=O)CCC(=O)O (stereo not shown)
			15	73	95				CCCCCNC(=O)C(Cc1ccc(OCCOO)c(COO)c1)NC(=O)C(Cc1ccccc1)NC(=O)CCNS(C)(=O)=O (stereo not shown)
			14	62	93				CCCCCNC(=O)C(Cc1ccc(OC(COO)COO)cc1)NC(=O)C(Cc1ccccc1)NC(=O)CCNC(=O)OC(C)(C)C (stereo not shown)
			3	33	86				CCCCCNC(=O)C(Cc1ccc(OC(COO)COO)cc1)NC(=O)C(Cc1cccc2ccccc12)NC(=O)OC(C)(C)C (stereo not shown)
			32	81	97	28	78%	96	CCCCCNC(=O)C(Cc1ccc(OCCOO)c(COO)c1)NC(=O)C(Cc1ccc(O)cc1)NC(=O)OC(C)(C)C (stereo not shown)
					87			97	CCCCCNC(=O)[C@H](Cc1ccc(OCC(=O)O)c(-c2nn[nH]n2)c1)NC(=O)[C@H](Cc1ccccc1)NC(=O)OC(C)(C)C
			22	74	95				CCCCCNC(=O)C(Cc1ccc(OCCOO)c(COO)c1)NC(=O)C(Cc1ccccc1)NC(=O)CCc1ccccc1 (stereo not shown)
			18	65	95	14	59%	93	CCCCCNC(=O)C(Cc1ccc(OC(COO)COO)cc1)NC(=O)N(Cc1ccccc1)Cc1ccccc1 (stereo not shown)
			19	68	95		63%	92	CCCCCNC(=O)C(Cc1ccc(OC(COO)COO)cc1)NC(=O)N1CCN(C(=O)OC(C)(C)C)CC1 (stereo not shown)
			45	87	98				CCCCCNC(=O)C(Cc1ccc(OCCOO)c(COO)c1)NC(=O)C(Cc1ccccc1)NC(=O)Cc1ccccc1 (stereo not shown)
			3	19	71				CCCCCNC(=O)C(Cc1ccc(OC(COO)COO)cc1)NC(=O)C(COCc1ccccc1)NC(=O)OC(C)(C)C (stereo not shown)
			19	65	94				CCCCCNC(=O)C(Cc1ccc(OC(COO)COO)cc1)NC(=O)C(Cc1ccccc1)NC(=O)CCOC (stereo not shown)
			37	83	97				CCCCCNC(=O)C(Cc1ccc(OCCOO)c(COO)c1)NC(=O)C(Cc1ccccc1)NC(=O)CCOC (stereo not shown)

inhibition at 1 µM (rat PTP1; Conc 1 uM) [%]	inhibition at 10 µM (rat PTP1; Conc 10 uM) [%]	inhibition at 100 µM (rat PTP1; Conc 100 uM) [%]	inhibition at 1 µM (human PTP1B; Conc 1 uM) [%]	inhibition at 10 µM (human PTP1B; Conc 10 uM) [%]	inhibition at 100 µM (human PTP1B; Conc 100 uM) [%]	PTP1B Inhib PTP1B. % Inhib (human PTP1B; Conc 1 uM) [%]	PTP1B Inhib PTP1B. % Inhib (human PTP1B; Conc 10 uM)	PTP1B Inhib PTP1B. % Inhib (human PTP1B; Conc 100 uM) [%]	Compound
			43	86	98				CCCCCNC(=O)C(Cc1ccc(OCCOO)c(COO)c1)NC(=O)C(Cc1ccccc1)NC(=O)Cc1cccc(O)c1 (stereo not shown)
			8	43	86				CCCCCNC(=O)C(Cc1ccc(OCCOO)c(COO)c1)NC(=O)C(C)NC(=O)OC(C)(C)C (stereo not shown)
			11	45	87				CCCCCNC(=O)C(Cc1ccc(OCCOO)c(COO)c1)NC(=O)N(Cc1ccccc1)Cc1ccccc1 (stereo not shown)
			4	24	76				CCCCCNC(=O)C(Cc1ccc(OC(COO)COO)cc1)NC(=O)C(CC(C)C)NC(=O)OC(C)(C)C (stereo not shown)
			6	19	66				CCCCCNC(=O)C(Cc1ccc(OC(COO)COO)cc1)NC(=O)CNC(=O)OCc1ccccc1 (stereo not shown)
			34	76	95				CCCCCNC(=O)[C@H](Cc1ccc(OC(F)C(=O)O)c(C(=O)O)c1)NC(=O)[C@H](Cc1ccccc1)NC(=O)OC(C)(C)C (stereo partly shown)
			2		58		7% and 17%	77	CCCCCNC(=O)C(Cc1ccc(OC(COO)COO)cc1)NC(=O)C(CCc1ccccc1)NC(=O)OC(C)(C)C (stereo not shown)
			5	8	42				CCCCCNC(=O)C(Cc1ccc(OC(COO)COO)cc1)NC(=O)N(Cc1ccccc1)C(CCc1ccccc1)CC(=O)O (stereo not shown)
			23	78	96				CCCCCNC(=O)C(Cc1ccc(OCCOO)c(COO)c1)NC(=O)C(Cc1ccccc1)NC(=O)CCCO (stereo not shown)
			10	44	89				CCCCCNC(=O)C(Cc1ccc(OC(C(=O)O)C(=O)O)cc1)NC(=O)[C@H](Cc1c[nH]c2ccccc12)NC(=O)OC(C)(C)C (stereo partly shown)
			49	88	98				CCCCCNC(=O)[C@H](Cc1ccc(OCC(=O)O)c(C(=O)O)c1)NC(=O)C(Cc1ccccc1)NC(=O)CSc1cnn[nH]1 (stereo partly shown)
			5	25	80				CCCCCNC(=O)C(Cc1ccc(OC(COO)COO)cc1)NC(=O)C(Cc1c(F)c(F)c(F)c(F)c1F)NC(=O)OC(C)(C)C (stereo not shown)
			5	31	80				CC(C)(C)OC(=O)N[C@@H](Cc1ccccc1)C(=O)N[C@H](CO)Cc1ccc(OCC(=O)O)c(C(=O)O)c1 [drawing 222]
			28	77	96				CCCCCNC(=O)C(Cc1ccc(OCCOO)c(COO)c1)NC(=O)C(Cc1ccccc1)NC(C)=O (stereo not shown)
			6	8	30				CCCCCNC(=O)[C@H](Cc1ccc(OCC(=O)NO)c(C(=O)O)c1)NC(=O)[C@H](Cc1ccccc1)NC(=O)OC(C)(C)C
			19	75	96				CCCCCNC(=O)C(Cc1ccc(OCCOO)c(COO)c1)NC(=O)C(Cc1ccccc1)NC(=O)CCNC(=O)OC(C)(C)C (stereo not shown)
